Laboratory results published in patent US9056111B1, “Selective efflux inhibitors and related pharmaceutical compositions and methods of treatment” (STC.UNM, priority 2011, dated 2015).
Like-named read-outs stand apart in the source and are kept apart here.

What was measured:
ABCG2 = target: T1, ABCG2 (Homo sapiens, UniProt Q9UNQ0); assay: JC-1 efflux inhibition dose response, flow cytometry, Ig-MXP3 cells; conditions: for ~Fold G2 Selective (B1/G2): quotient of average ABCB1 IC50 and average ABCG2 IC50, efflux assay
T1 sequence (Q9UNQ0 1-655): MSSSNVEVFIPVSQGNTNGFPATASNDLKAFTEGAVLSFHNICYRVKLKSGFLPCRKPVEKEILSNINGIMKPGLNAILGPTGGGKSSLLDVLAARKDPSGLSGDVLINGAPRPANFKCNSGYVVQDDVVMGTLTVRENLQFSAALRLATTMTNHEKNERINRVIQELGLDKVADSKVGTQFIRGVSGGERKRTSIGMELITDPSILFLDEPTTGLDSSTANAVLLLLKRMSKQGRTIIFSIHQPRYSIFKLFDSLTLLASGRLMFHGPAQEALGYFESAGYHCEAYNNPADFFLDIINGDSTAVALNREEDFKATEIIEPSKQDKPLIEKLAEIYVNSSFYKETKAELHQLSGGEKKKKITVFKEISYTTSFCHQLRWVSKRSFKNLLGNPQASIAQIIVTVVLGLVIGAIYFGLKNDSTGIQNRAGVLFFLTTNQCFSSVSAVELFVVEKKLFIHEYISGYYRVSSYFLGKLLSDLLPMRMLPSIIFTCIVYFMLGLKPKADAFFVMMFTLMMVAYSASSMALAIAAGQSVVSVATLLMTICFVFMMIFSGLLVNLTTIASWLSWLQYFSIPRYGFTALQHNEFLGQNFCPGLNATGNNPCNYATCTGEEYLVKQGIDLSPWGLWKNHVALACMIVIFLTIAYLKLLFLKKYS
Method: (§1) The HyperCyt® high throughput flow cytometry platform (IntelliCyt™, Albuquerque, N. Mex.) was used to sequentially sample cells from 384-well microplates (2 μL/sample) for flow cytometer presentation at a rate of 40 samples per minute.^62-63 Flow cytometric analysis was performed on a CyAn™ flow cytometer (Beckman-Coulter, Fullerton, Calif.). The resulting time-gated data files were analyzed with HyperView® software to determine compound activity in each well. Inhibition response curves were fitted by Prism® software (GraphPad Software, Inc., San Diego, Calif.) using nonlinear least-squares regression in a sigmoidal dose response model with variable slope, also known as the four-parameter logistic equation. This type of time-gated flow cytometric data analysis was described in detail for a previous ABC transporter screen from our group.^56
(§2) The assay provider's ABCB1 over-expressing Jurkat-DNR cell line is used for confirmatory follow up instead of the CCRF-Adr cells. Each cell line (Jurkat-DNR and Ig-MXP3) is run separately against all compounds (no differential cell staining) in dose response. The assay is conducted in 384-well format in a total volume of 15.1 μL. Cells and reagents are added sequentially as follows: 1) PBS buffer (5 μL/well); 2) test compound (100 nL/well); 3) drug-resistant cells (10 μL/well) pre-stained with the JC-1 substrate at 1 μM. […] Nicardipine (50 μM) is added to each plate as a pan-inhibition positive control.
(§3) Each cell line (Jurkat-DNR and Ig-MXP3) was run separately against all compounds (no differential cell staining) in dose-response. The protocol differed from the single point screen as describe here. Cells and reagents were added sequentially as follows: 1) PBS buffer (5 μL per well); 2) test compound (100 nL per well); 3) drug-resistant cells (10 μL, per well) pre-exposed to the JC-1 substrate at 1 μM just prior to the well addition.

ABCB1 = ABCB1 (Homo sapiens, UniProt P08183); assay: JC-1 efflux inhibition dose response, flow cytometry, Jurkat-DNR cells; conditions: for IC50: Jurkat-DNR cells over-expressing ABCB1, averages of two to four replicates; for efflux inhibition activity ABCB1: JC-1 efflux, Jurkat-DNR
ABCB1, sequence (P08183 whole entry): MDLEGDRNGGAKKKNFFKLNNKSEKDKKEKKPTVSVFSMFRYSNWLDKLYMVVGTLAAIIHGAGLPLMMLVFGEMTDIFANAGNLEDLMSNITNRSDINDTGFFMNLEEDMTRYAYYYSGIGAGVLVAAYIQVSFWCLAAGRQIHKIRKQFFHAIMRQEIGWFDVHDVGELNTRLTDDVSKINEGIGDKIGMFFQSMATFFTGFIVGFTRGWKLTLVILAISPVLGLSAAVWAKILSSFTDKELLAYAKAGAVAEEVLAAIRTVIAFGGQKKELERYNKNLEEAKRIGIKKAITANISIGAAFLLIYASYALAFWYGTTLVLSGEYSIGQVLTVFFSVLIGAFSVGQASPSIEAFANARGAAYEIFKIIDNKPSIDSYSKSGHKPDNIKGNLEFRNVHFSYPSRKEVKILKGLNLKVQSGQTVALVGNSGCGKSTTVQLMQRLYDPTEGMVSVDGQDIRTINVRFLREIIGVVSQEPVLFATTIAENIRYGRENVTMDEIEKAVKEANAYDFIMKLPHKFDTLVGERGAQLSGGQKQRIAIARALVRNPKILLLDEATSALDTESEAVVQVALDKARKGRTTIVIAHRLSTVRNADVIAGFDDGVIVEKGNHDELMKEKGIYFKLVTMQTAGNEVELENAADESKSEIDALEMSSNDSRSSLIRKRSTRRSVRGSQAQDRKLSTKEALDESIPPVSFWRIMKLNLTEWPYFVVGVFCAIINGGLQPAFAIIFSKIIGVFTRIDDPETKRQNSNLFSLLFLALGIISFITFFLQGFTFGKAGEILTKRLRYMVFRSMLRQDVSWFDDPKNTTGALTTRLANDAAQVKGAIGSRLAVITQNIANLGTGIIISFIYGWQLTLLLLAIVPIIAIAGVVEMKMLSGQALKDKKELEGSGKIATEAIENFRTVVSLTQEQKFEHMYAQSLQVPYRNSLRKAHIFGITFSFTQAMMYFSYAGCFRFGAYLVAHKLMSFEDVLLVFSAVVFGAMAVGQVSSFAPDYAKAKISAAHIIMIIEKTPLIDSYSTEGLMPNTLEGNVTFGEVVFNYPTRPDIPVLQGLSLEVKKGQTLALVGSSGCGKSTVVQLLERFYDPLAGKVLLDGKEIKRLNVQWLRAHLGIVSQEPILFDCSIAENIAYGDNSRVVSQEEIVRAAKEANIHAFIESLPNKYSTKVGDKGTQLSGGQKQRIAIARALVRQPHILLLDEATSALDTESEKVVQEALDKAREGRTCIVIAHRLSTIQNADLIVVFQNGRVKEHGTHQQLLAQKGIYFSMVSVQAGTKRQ
Method: as §1
The assay provider's ABCB1 over-expressing Jurkat-DNR cell line is used for confirmatory follow up instead of the CCRF-Adr cells. Each cell line (Jurkat-DNR and Ig-MXP3) is run separately against all compounds (no differential cell staining) in dose response. The assay is conducted in 384-well format in a total volume of 15.1 μL. Cells and reagents are added sequentially as follows: 1) PBS buffer (5 μL/well); 2) test compound (100 nL/well); 3) drug-resistant cells (10 μL/well) pre-stained with the JC-1 substrate at 1 μM. Final in-well concentrations of test compound range from 50 μM to 69 nM over an 18 point dose response and the cell concentration is 1×10^6 cells/mL. Nicardipine (50 μM) is added to each plate as a pan-inhibition positive control. The plate is rotated end-over-end at 4 RPM and 25° C. for 30 minutes and then cell samples are analyzed and flow cytometric data of light scatter and fluorescence emission at 530+/−20 nm (488 nm excitation, FL1) are collected.
Each cell line (Jurkat-DNR and Ig-MXP3) was run separately against all compounds (no differential cell staining) in dose-response. The protocol differed from the single point screen as describe here. Cells and reagents were added sequentially as follows: 1) PBS buffer (5 μL per well); 2) test compound (100 nL per well); 3) drug-resistant cells (10 μL, per well) pre-exposed to the JC-1 substrate at 1 μM just prior to the well addition. Final in-well concentrations of test compound ranged from 50 μM to 69 nM over an 18 point dose-response and the cell concentration was 1×10^6 cells mL^−1.

ABCB1 / ABCG2 = target: T2, ABCB1 / ABCG2 (Homo sapiens, UniProt Q9UNQ0); assay: JC-1 efflux inhibition dose response, flow cytometry, Ig-MXP3 cells; conditions: human, probe JC-1 (1 µM), ~Fold G2 Selective (B1/G2), quotient of average ABCB1 IC50 and average ABCG2 IC50, efflux assay
T2 sequence (Q9UNQ0 1-655): T1 sequence (Q9UNQ0 1-655)
Method: as §1, §2, §3

[1] = read-out: IC50 ABCG2 (efflux inhibition of JC-1 substrate), Ig-MXP3 cells over-expressing ABCG2, averages of two to four replicates
[2] = read-out: IC50 ABCB1 (efflux inhibition of JC-1 substrate)
[3] = IC50 ABCB1 (efflux inhibition of JC-1 substrate)

Row | SMILES | ~Fold G2 Selective (B1/G2) (ABCG2) [fold] | IC50 (ABCG2; [1]) [µM] | IC50 (ABCB1; [2]) [µM] | IC50 (ABCG2) [µM] | selectivity ratio at 30 min (ABCB1 / ABCG2) | IC50 (ABCB1; [3]) [µM] | efflux inhibition activity ABCB1 (ABCB1) | efflux inhibition activity ABCG2 (ABCG2; JC-1 efflux, Ig-MXP3)
1 | COc1ccccc1-c1cc2nc(-c3ccccc3)cc(N3CCN(C(=O)c4ccccc4)CC3)n2n1 [Compound 41] | 3.0 | 0.76 ± 0.06 | 2.31 ± 0.79 | – | – | – | – | –
2 | O=C(c1ccoc1)N1CCN(c2cc(-c3ccccc3F)nc3cc(-c4cccc(Cl)c4)nn23)CC1 [Compound 26] | – | – | – | 1.93 ± 0.48 | 2.4 | 4.69 ± 1.5 | – | –
3 | O=C(c1ccsc1)N1CCN(c2cc(-c3ccco3)nc3cc(-c4ccccc4)nn23)CC1 [Compound 68] | 3.6 | 1.38 ± 1.04 | 4.93 ± 1.76 | – | – | – | – | –
4 | O=C(c1cccc(Cl)c1)N1CCN(c2cc(-c3ccccc3)nc3cc(-c4cccc(Cl)c4)nn23)CC1 [Compound 18] | – | – | – | 2.95 ± 0.57 | 1.4 | 4.19 ± 1.88 | – | –
5 | O=C(c1ccccc1)N1CCN(c2cc(-c3ccccc3)nc3cc(-c4cccc(F)c4)nn23)CC1 [Compound 42] | – | – | – | 2.27 ± 0.06 | 1.9 | 4.34 ± 2.09 | – | –
6 | O=C(c1ccoc1)N1CCCN(c2cc(-c3ccco3)nc3cc(-c4ccccc4)nn23)C1 [Compound 85] | – | – | – | 2.25 ± 1.9 | 8.5 | 19.1 ± 9.52 | – | –
7 | O=C(c1ccoc1)N1CCN(c2cc(-c3cccc(F)c3)nc3cc(-c4ccccc4)nn23)CC1 [Compound 47] | – | – | – | 1.68 ± 0.61 | 4.2 | 7.07 | – | –
8 | O=C(c1ccccc1)N1CCN(c2cc(-c3ccco3)nc3cc(-c4ccccc4)nn23)CC1 [Compound 69] | – | – | – | 1.62 ± 1.27 | 3.4 | 5.56 ± 1.25 | – | –
9 | O=C(c1ccoc1)N1CCN(c2cc(-c3ccccc3F)nc3cc(-c4ccccc4)nn23)CC1 [Compound 46] | – | – | – | 0.56 | 10 | 5.61 | – | –
10 | O=C(OCc1ccccc1)N1CCN(c2cc(-c3ccco3)nc3cc(-c4ccccc4)nn23)CC1 [Compound 76] | 18.5 | – | – | 2.71 ± 1.95 | ~19 | > 50 | completely lost | –
11 | COc1cccc(-c2cc3nc(-c4ccccc4)cc(N4CCN(C(=O)c5ccco5)CC4)n3n2)c1 [Compound 38] | – | – | – | 1.4 ± 0.32 | 3.4 | 4.77 ± 0.63 | – | –
12 | O=C(c1ccoc1)N1CCN(c2cc(-c3ccc(F)cc3)nc3cc(-c4ccccc4)nn23)CC1 [Compound 48] | – | – | – | 6.45 | 1.8 | 11.8 | – | –
13 | O=C(c1ccccc1)N1CCN(c2cc(-c3ccccc3)nc3cc(-c4cccc(Cl)c4)nn23)CC1 [Compound 13] | – | – | – | 1.45 ± 0.59 | 2.4 | 3.42 ± 1.64 | – | –
14 | COc1cccc(-c2cc3nc(-c4ccccc4)cc(N4CCN(C(=O)c5ccoc5)CC4)n3n2)c1 [Compound 35] | – | – | – | 1.14 ± 0.59 | 2 | 2.26 ± 0.83 | – | –
15 | Cc1ccc(-c2cc(N3CCN(C(=O)c4ccoc4)CC3)n3nc(-c4ccccc4)cc3n2)o1 [Compound 66] | – | – | – | 0.84 ± 0.87 | 0.8 | 0.68 | – | –
16 | O=C(c1ccco1)N1CCN(c2cc(-c3ccco3)nc3cc(-c4ccccc4)nn23)CC1 [Compound 67] | – | – | – | 2.77 ± 4.01 | 2.4 | 6.57 ± 2.13 | – | –
17 | O=C(c1ccco1)N1CCN(c2cc(-c3ccccc3)nc3cc(-c4ccc(Cl)cc4)nn23)CC1 [Compound 39] | – | – | – | 1.37 ± 0.53 | 2.7 | 3.64 ± 1.47 | – | –
18 | CC(=O)N1CCN(c2cc(-c3ccccc3)nc3cc(-c4cccc(Cl)c4)nn23)CC1 [Compound 23] | – | – | – | 6.07 ± 0.73 | 0.9 | 5.67 ± 2.21 | – | –
19 | Cc1coc(C)c1C(=O)N1CCN(c2cc(-c3ccco3)nc3cc(-c4ccccc4)nn23)CC1 [Compound 71] | 2.0 | 3.68 ± 2.21 | 7.32 ± 2.52 | – | – | – | – | –
20 | COc1ccc2c3c([nH]c2c1)[C@H](C=C(C)C)N1C(=O)[C@@H]2CCCN2C(=O)[C@@H]1C3 [Compound 3, reference compound] | – | – | – | – | – | – | no activity | no activity
21 | Cc1cc(C(=O)N2CCN(c3cc(-c4ccco4)nc4cc(-c5ccccc5)nn34)CC2)c(C)o1 [Compound 72] | 3.6 | 3.37 ± 1.19 | 12 ± 6.11 | – | – | – | – | –
22 | CN(C)CCN(C)c1cc(-c2ccco2)nc2cc(-c3ccccc3)nn12 [Compound 78] | – | – | – | 8.88 ± 2.82 | – | > 50 | – | –
23 | O=S(=O)(c1ccccc1)N1CCN(c2cc(-c3ccccc3)nc3cc(-c4cccc(Cl)c4)nn23)CC1 [Compound 25] | – | – | – | > 50 | – | > 50 | – | –
24 | Cc1occc1C(=O)N1CCN(c2cc(-c3ccco3)nc3cc(-c4ccccc4)nn23)CC1 [Compound 70] | 5.1 | 2.33 ± 2.23 | 11.9 ± 7.4 | – | – | – | – | –
25 | COc1ccccc1-c1cc2nc(-c3ccccc3)cc(N3CCN(C(=O)c4ccco4)CC3)n2n1 [Compound 37] | 2.9 | 1.03 ± 0.17 | 3 ± 0.57 | – | – | – | – | –
26 | O=C(Nc1ccccc1)C1CCN(c2cc(-c3ccco3)nc3cc(-c4ccccc4)nn23)CC1 [Compound 84] | – | – | – | 8.03 ± 2.18 | – | > 50 | – | –
27 | O=C(c1coc2ccccc12)N1CCN(c2cc(-c3ccco3)nc3cc(-c4ccccc4)nn23)CC1 [Compound 73] | 3.1 | 2.84 ± 0.96 | 8.83 ± 6.63 | – | – | – | – | –
